Experimental data as given in patent US7109329B2, “Neurologically active compounds and compounds with multiple activities” (priority 1988, dated 2006).

Assay: Treatment of spinal cord injured rats and cats with alpha-adrenoceptor agonists
Assay type: in vivo
Method: The animals are treated with a guanidino compound, e.g., guanphylline or aminoguanphylline, twice daily (1 mg/kg). Approximately 10, 14 and 20 days after treatment with, e.g., guanphylline or aminoguanphylline is commenced, these animals can also be treated with a serotonergic (“5-HT”) receptor agonist; such as quipazine (1–2 mg/kg). Such serotonergic compounds can accelerate the recovery period, i.e., shorten the period after which time the animals become mobile. The animals should then continue to be treated systemically with the guanidino compound twice daily for six to eight weeks, or until functional recovery has been achieved.
Many rats and cats have been treated with several alpha-adrenoceptor agonists in order to ascertain which drug has the least side effects and reduces the time period for recovery.

Cn1c(=O)c2c(ncn2C(=O)CNC(=N)N)n(C)c1=O [7-(guanidinoacetyl)-theophylline]
efficacy in treated rats and cats: found efficacious
